# Reference: patent publication US20150182586A1, “DAIRY FARM TEAT DIP COMPOSITIONS AND METHODS” (Advanced BioCatalytics Corporation, priority 2013, published 2015)
# System: mastitis
# Test: Teat dip field test, Dairy 3 (spray, raw milk dairy, 6 week test period)
# Type: in vivo
# Settings: Dairy 3, pre and post milking; chlorine dioxide on cows without previous mastitis (Pens 0, 1, 3, 5), Example 1 on cows with previous mastitis (Pen 7)
# From the text: Dairy 3 produces raw milk and uses a spray method for applying teat dips. A key factor to note is that Example 1 was used on cows that previously had mastitis. The results of Table 5 compare using chlorine dioxide on cows that had not had mastitis, to using Example 1 on cows that were more susceptible due to previous bouts with mastitis. Once a cow developed mastitis in Dairy 3, it is not used in the production of raw milk. […] Pen No's. 0, 1, 3 and 5 used chlorine dioxide for both pre and post milking. Pen No. 7 used Example 1 for the 6 week test period. In all pens, the cows were retained in pens with saw dust in between milking cycles to reduce the chance of spreading infectious disease.
# The number of cows that were […] using the composition of Example 1, for both pre and post milking, during the 6 week test period was 5.3% as shown in Table 5. Table 6 defines the number of cows in each respective pen of Table 5.
compound,measurement,value
[O][Cl+][O-] [chlorine dioxide],cows that developed mastitis during the 6 week test period,5.7%
